Experimental data reported in ChEMBL document CHEMBL1201862, “PubChem BioAssay data set” (2004).
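Each compound was tested at five concentrations against cells in 96-well plates for 48 hours. The concentration for 50% growth inhibition is given as GI50.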 Calls of active or inactive are those of the source. Cut-off read from the data, not from the text of the source: active = GI50 up to about 1.1 µM and inactive = higher.

How the values were obtained:
Assay in all cases: DTP human tumour cell line panel, 48 h
MCF7 = tested on: MCF7
K562 = tested on: K562
HCT-116 = tested on: HCT-116
RPMI-8226 = tested on: RPMI-8226
SK-OV-3 = tested on: SK-OV-3
OVCAR-4 = tested on: OVCAR-4
SF-539 = tested on: SF-539
NCI-H226 = tested on: NCI-H226
A498 = tested on: A498
KM12 = tested on: KM12
UACC-62 = tested on: UACC-62
TK-10 = tested on: TK-10
SNB-19 = tested on: SNB-19
UO-31 = tested on: UO-31
786-0 = tested on: 786-0
M14 = tested on: M14
T47D = tested on: T47D
NCI-H23 = tested on: NCI-H23
Malme-3M = tested on: Malme-3M

Row | SMILES | GI50 (MCF7) | GI50 (K562) | GI50 (HCT-116) | GI50 (RPMI-8226) | GI50 (SK-OV-3) | GI50 (OVCAR-4) | GI50 (SF-539) | GI50 (NCI-H226) | GI50 (A498) | GI50 (KM12) | GI50 (UACC-62) | GI50 (TK-10) | GI50 (SNB-19) | GI50 (UO-31) | GI50 (786-0) | GI50 (M14) | GI50 (T47D) | GI50 (NCI-H23) | GI50 (Malme-3M)
1 | Nc1ccc2c(c1)NC(=O)[C@@H]1CCCN1C2=O | > 100 µM (inactive) | > 100 µM (inactive) | > 100 µM (inactive) | > 100 µM (inactive) | > 100 µM (inactive) | > 100 µM (inactive) | > 100 µM (inactive) | > 100 µM (inactive) | > 100 µM (inactive) | > 100 µM (inactive) | > 100 µM (inactive) | > 100 µM (inactive) | > 100 µM (inactive) | > 100 µM (inactive) | > 100 µM (inactive) | > 100 µM (inactive) | 96.6 µM (inactive) | > 100 µM (inactive) | –
2 | C/C(=N\NC(=O)/C(C#N)=C\c1ccc(N(CCC#N)CCC#N)cc1)c1ccccc1 | > 10 µM (inactive) | – | > 10 µM (inactive) | > 10 µM (inactive) | > 10 µM (inactive) | > 10 µM (inactive) | > 10 µM (inactive) | > 10 µM (inactive) | – | > 10 µM (inactive) | > 10 µM (inactive) | > 10 µM (inactive) | 4.1 µM (inactive) | > 10 µM (inactive) | > 10 µM (inactive) | > 10 µM (inactive) | > 10 µM (inactive) | > 10 µM (inactive) | > 10 µM (inactive)
3 | C=CCN1CCC2(CC1)NC(=O)c1ccccc1O2 | > 100 µM (inactive) | > 100 µM (inactive) | > 100 µM (inactive) | > 100 µM (inactive) | > 100 µM (inactive) | > 100 µM (inactive) | > 100 µM (inactive) | > 100 µM (inactive) | – | > 100 µM (inactive) | > 100 µM (inactive) | > 100 µM (inactive) | > 100 µM (inactive) | > 100 µM (inactive) | > 100 µM (inactive) | > 100 µM (inactive) | > 100 µM (inactive) | > 100 µM (inactive) | > 100 µM (inactive)
4 | CC(C)c1cc(=O)[nH]c2cc(N)ccc12 | > 100 µM (inactive) | > 100 µM (inactive) | > 100 µM (inactive) | > 100 µM (inactive) | – | > 100 µM (inactive) | > 100 µM (inactive) | > 100 µM (inactive) | > 100 µM (inactive) | > 100 µM (inactive) | 93.8 µM (inactive) | – | > 100 µM (inactive) | > 100 µM (inactive) | > 100 µM (inactive) | > 100 µM (inactive) | > 100 µM (inactive) | > 100 µM (inactive) | –
5 | c1ccc2c(c1)SC1=C(SC(=C3SC4=C(S3)Sc3ccccc3S4)S1)S2 | > 100 µM (inactive) | – | > 100 µM (inactive) | > 100 µM (inactive) | – | > 100 µM (inactive) | > 100 µM (inactive) | > 100 µM (inactive) | – | > 100 µM (inactive) | > 100 µM (inactive) | > 100 µM (inactive) | > 100 µM (inactive) | > 100 µM (inactive) | 91 µM (inactive) | > 100 µM (inactive) | > 100 µM (inactive) | > 100 µM (inactive) | > 100 µM (inactive)
6 | O=C(CCc1cc(O)cc(O)c1)NCCc1cc(O)cc(OCc2ccccc2)c1 | 32.6 µM (inactive) | 36.1 µM (inactive) | 35.7 µM (inactive) | 35.8 µM (inactive) | 59.4 µM (inactive) | – | 36.7 µM (inactive) | 62.7 µM (inactive) | > 100 µM (inactive) | 34 µM (inactive) | 32.1 µM (inactive) | > 100 µM (inactive) | 26.4 µM (inactive) | 22.2 µM (inactive) | 64.9 µM (inactive) | 35.8 µM (inactive) | 34 µM (inactive) | 23.4 µM (inactive) | –
7 | O=C(CCCn1ccnc1[N+](=O)[O-])NCCn1cnc([N+](=O)[O-])c1 | > 100 µM (inactive) | > 100 µM (inactive) | > 100 µM (inactive) | > 100 µM (inactive) | > 100 µM (inactive) | > 100 µM (inactive) | > 100 µM (inactive) | > 100 µM (inactive) | – | > 100 µM (inactive) | > 100 µM (inactive) | > 100 µM (inactive) | > 100 µM (inactive) | > 100 µM (inactive) | > 100 µM (inactive) | > 100 µM (inactive) | > 100 µM (inactive) | > 100 µM (inactive) | > 100 µM (inactive)
8 | Clc1sc(Cl)c2c1[C@@H](Cl)C[C@@H]2Cl | 52.4 µM (inactive) | 48.5 µM (inactive) | 53.5 µM (inactive) | – | > 100 µM (inactive) | 74.3 µM (inactive) | > 100 µM (inactive) | 57.3 µM (inactive) | > 100 µM (inactive) | > 100 µM (inactive) | 13.4 µM (inactive) | > 100 µM (inactive) | – | 76 µM (inactive) | > 100 µM (inactive) | > 100 µM (inactive) | 45.4 µM (inactive) | 53.8 µM (inactive) | 29.7 µM (inactive)
9 | CCOC(=O)CCC(NC(=O)c1ccc(Nc2cnc3cc(C(F)(F)F)ccc3n2)cc1)C(=O)OCC (stereo not given) | > 31.6 µM (inactive) | 93.1 µM (inactive) | 17.8 µM (inactive) | > 100 µM (inactive) | – | 36.7 µM (inactive) | > 100 µM (inactive) | > 79.6 µM (inactive) | – | 61.9 µM (inactive) | > 10 µM (inactive) | > 87.9 µM (inactive) | 11.7 µM (inactive) | > 100 µM (inactive) | 9.75 µM (inactive) | 35.9 µM (inactive) | > 100 µM (inactive) | 27.7 µM (inactive) | > 57 µM (inactive)
10 | CC(=O)N1c2ccccc2Sc2cc(C(O)(C(F)(F)F)C(F)(F)F)ccc21 | > 10 µM (inactive) | > 10 µM (inactive) | > 10 µM (inactive) | – | > 10 µM (inactive) | > 10 µM (inactive) | > 10 µM (inactive) | > 10 µM (inactive) | > 10 µM (inactive) | > 10 µM (inactive) | > 10 µM (inactive) | > 10 µM (inactive) | > 10 µM (inactive) | > 10 µM (inactive) | > 10 µM (inactive) | > 10 µM (inactive) | 9.86 µM (inactive) | > 10 µM (inactive) | > 10 µM (inactive)
11 | CCOC(=O)c1[nH]cc(C)c1-c1ccc2c(-c3ccccc3)nc3ccccc3n12 | 2.1 µM (inactive) | 3.34 µM (inactive) | 3.19 µM (inactive) | – | 4.4 µM (inactive) | 3.85 µM (inactive) | 3.12 µM (inactive) | 5.22 µM (inactive) | 2.84 µM (inactive) | 3.45 µM (inactive) | 2.73 µM (inactive) | 3.21 µM (inactive) | – | 3.86 µM (inactive) | 3.56 µM (inactive) | 5.55 µM (inactive) | 4.43 µM (inactive) | 5.05 µM (inactive) | –
12 | CCOC(=O)c1c(-c2ccccc2)nc2c(OC)nccn12 | > 100 µM (inactive) | > 100 µM (inactive) | > 100 µM (inactive) | > 100 µM (inactive) | > 100 µM (inactive) | > 100 µM (inactive) | > 100 µM (inactive) | > 100 µM (inactive) | – | > 100 µM (inactive) | > 100 µM (inactive) | 60.5 µM (inactive) | > 100 µM (inactive) | 20.5 µM (inactive) | > 100 µM (inactive) | > 100 µM (inactive) | 25.4 µM (inactive) | > 100 µM (inactive) | > 100 µM (inactive)
13 | CC(C)(C)C(=O)OCOP(=O)(OCOC(=O)C(C)(C)C)OCC1OC(n2ccc(=O)[nH]c2=O)C(N=[N+]=[N-])C1O (stereo not given) | 3.81 µM (inactive) | 19.1 µM (inactive) | 3.22 µM (inactive) | 1.62 µM (inactive) | – | 3.13 µM (inactive) | 2.43 µM (inactive) | 9.29 µM (inactive) | – | 3.11 µM (inactive) | 2.88 µM (inactive) | 10.5 µM (inactive) | 12.9 µM (inactive) | 1.62 µM (inactive) | 2.46 µM (inactive) | 3 µM (inactive) | 1.48 µM (inactive) | 4.45 µM (inactive) | 0.261 µM (active)
14 | N#C/C(=C\c1ccccc1)c1nc(-c2cc3ccccc3oc2=O)cs1 | > 100 µM (inactive) | > 100 µM (inactive) | > 100 µM (inactive) | > 100 µM (inactive) | 72.8 µM (inactive) | 41.5 µM (inactive) | 58.5 µM (inactive) | > 100 µM (inactive) | – | 75.3 µM (inactive) | 43.1 µM (inactive) | 45.2 µM (inactive) | 74.3 µM (inactive) | 93.1 µM (inactive) | 53.5 µM (inactive) | > 100 µM (inactive) | > 100 µM (inactive) | – | > 100 µM (inactive)
15 | CN(C)c1ccc(C2CC(C)(O)Oc3cc4c(cc32)OCO4)cc1 (stereo not given) | 38.4 µM (inactive) | 48 µM (inactive) | 34.5 µM (inactive) | 19.7 µM (inactive) | 48.8 µM (inactive) | – | 34.1 µM (inactive) | 3.86 µM (inactive) | – | 30 µM (inactive) | 21.6 µM (inactive) | 59.3 µM (inactive) | 98.9 µM (inactive) | 30.7 µM (inactive) | 43.7 µM (inactive) | 39.1 µM (inactive) | 48.6 µM (inactive) | 71.8 µM (inactive) | 67 µM (inactive)
16 | Cc1c2ccnc(C(=O)NCCN(C)C)c2cc2c3cc(O)ccc3n(C)c12 | 0.082 µM (active) | 0.123 µM (active) | 0.0608 µM (active) | 0.0927 µM (active) | 0.162 µM (active) | 0.537 µM (active) | 0.0603 µM (active) | 0.177 µM (active) | – | 0.678 µM (active) | 0.15 µM (active) | 2 µM (inactive) | 0.184 µM (active) | 0.267 µM (active) | 0.0542 µM (active) | 0.215 µM (active) | 0.321 µM (active) | 0.125 µM (active) | 0.295 µM (active)
